In brackets after ≈: the same amount, converted by molar mass.
Tests used:
acne [1] = conditions: Elewski, cited from earlier work
acne [2] = conditions: 500 mg three times per week; Kapadia 2004; cited from earlier work
[3] = Gastrointestinal side effects monitoring; assay type: in vivo, human; conditions: 40, 80, or 120 mg/day; 42 days treatment plus 4 weeks after cessation
Source text: The subjects of Example 1 were monitored for the presence of gastrointestinal adverse effects during the six weeks (42 days) of treatment with the daily low-dose azithromycin of the invention and for an additional 4 weeks (total of 70 days) following cessation of treatment.

Streptococcus pyogenes = conditions: Neu 1991; cited from earlier work
moderate to severe acne = experiment: Efficacy against acne (lesion counts), 40/80/120 mg per day; assay type: in vivo, human
Method: The subjects of Example 1 were evaluated for efficacy of each dosage (40 mg, 80 mg, or 120 mg per day) in treating moderate to severe acne following treatment for 6 weeks. Before starting the treatment protocol, the number of facial non-inflammatory lesions (open and closed comedones), inflammatory lesions (papules, pustules, and nodules), and nodules were counted. The numbers of these lesions were counted again at day 21 of treatment and at day 42. The % decrease from Day 0 was calculated as the mean of the differences for each of the parameters (non-inflammatory lesions, inflammatory lesion and nodules) for each individual subject on Day 21 and Day 42. The results, including average lesion counts and efficacy assessment by percent decrease in lesion counts, are shown for the 40 mg, 80 mg, and 120 mg group, respectively, in Tables 4, 5, and 6.

acne [4] = conditions: 500 mg/day for 4 days in four cycles every 10 days; Gruber 1998; cited from earlier work
[5] = Additional low dosage regimens, adverse effects; assay type: in vivo, human
Method: The numbers of facial inflammatory lesions: papules, pustules, and nodules, and non-inflammatory lesions: open and closed comedones, were counted at the beginning of treatment and again after 3 weeks of treatment and after 6 weeks of treatment. Additionally, nodules were counted independently at each of these visits. Additionally, during the treatment study, each subject reported the occurrence of any adverse effects. The results of this study for the 25 mg/day regimen are shown in Table 7 and for the 80 mg every other day regiment in Table 8. In these tables, the numbers represent the mean number of lesions in the four subjects of each group. The % decrease from Day 0 was calculated as the mean of the differences for each of the parameters (inflammatory lesions, non-inflammatory lesion and nodules) for each individual subject on Day 21 and Day 42.

[6] = 40 mg/day for 6 weeks, Day 0 (before treatment)
[7] = 80 mg/day for 6 weeks, Day 0 (before treatment)
[8] = 120 mg/day for 6 weeks, Day 0 (before treatment)

## CC[C@H]1OC(=O)[C@H](C)[C@@H](O[C@H]2C[C@@](C)(OC)[C@@H](O)[C@H](C)O2)[C@H](C)[C@@H](O[C@@H]2O[C@H](C)C[C@H](N(C)C)[C@H]2O)[C@](C)(O)C[C@@H](C)CN(C)[C@H](C)[C@@H](O)[C@]1(C)O [Azithromycin, 9-deoxo-9a-aza-9a-methyl-9a-homoerythromycin A]
Acne [1]; 500 mg day 1, then 250 mg/day for 4 days, from 1st and 15th of each month, 3 months
  improvement in acne: all patients treated with this azithromycin regimen showed improvement
Acne [1]; same regimen
  subjects who experienced gastrointestinal side effects: only one of twenty subjects
Acne [2]
  subjects with adverse events: 11%
  treatment of acne: successful treatment
[3]
  gastrointestinal side effects: no gastrointestinal side effects were reported
Streptococcus pyogenes
  MIC90 against Streptococcus pyogenes: 0.12 mg/L (≈ 0.16 µM)
Moderate to severe acne; [6]
  Inflammatory lesions (average count): 30.1
  Nodules (average count): 5.2
  Non-inflammatory lesions (average count): 36.5
Moderate to severe acne; 40 mg/day for 6 weeks, Day 21
  Inflammatory lesions % Decrease from Day 0: 51.5%
  Inflammatory lesions (average count): 14.4
  Nodules % Decrease from Day 0: 62.4%
  Nodules (average count): 2.2
  Non-inflammatory lesions % Decrease from Day 0: 30.4%
  Non-inflammatory lesions (average count): 23.9
Moderate to severe acne; 40 mg/day for 6 weeks, Day 42
  Inflammatory lesions % Decrease from Day 0: 54.2%
  Inflammatory lesions (average count): 13.8
  Nodules % Decrease from Day 0: 82.2%
  Nodules (average count): 1.2
  Non-inflammatory lesions % Decrease from Day 0: 38.9%
  Non-inflammatory lesions (average count): 21.5
Moderate to severe acne; [7]
  Inflammatory lesions (average count): 37.0
  Nodules (average count): 5.5
  Non-inflammatory lesions (average count): 38.7
Moderate to severe acne; 80 mg/day for 6 weeks, Day 21
  Inflammatory lesions % Decrease from Day 0: 44.7%
  Inflammatory lesions (average count): 19.8
  Nodules % Decrease from Day 0: 72.8%
  Nodules (average count): 1.5
  Non-inflammatory lesions % Decrease from Day 0: 34.7%
  Non-inflammatory lesions (average count): 24.9
Moderate to severe acne; 80 mg/day for 6 weeks, Day 42
  Inflammatory lesions % Decrease from Day 0: 53.7%
  Inflammatory lesions (average count): 17.0
  Nodules % Decrease from Day 0: 74.2%
  Nodules (average count): 1.3
  Non-inflammatory lesions % Decrease from Day 0: 24.7%
  Non-inflammatory lesions (average count): 29.3
Moderate to severe acne; [8]
  Inflammatory lesions (average count): 31.6
  Nodules (average count): 4.7
  Non-inflammatory lesions (average count): 37.7
Moderate to severe acne; 120 mg/day for 6 weeks, Day 21
  Inflammatory lesions % Decrease from Day 0: 51.9%
  Inflammatory lesions (average count): 15.6
  Nodules % Decrease from Day 0: 78.6%
  Nodules (average count): 1.0
  Non-inflammatory lesions % Decrease from Day 0: 28.1%
  Non-inflammatory lesions (average count): 27.8
Moderate to severe acne; 120 mg/day for 6 weeks, Day 42
  Inflammatory lesions % Decrease from Day 0: 52.9%
  Inflammatory lesions (average count): 14.8
  Nodules % Decrease from Day 0: 73.7%
  Nodules (average count): 1.1
  Non-inflammatory lesions % Decrease from Day 0: 38.9%
  Non-inflammatory lesions (average count): 23.2
Moderate to severe acne; any of 40, 80, or 120 mg per day, at 21 days and at 42 days
  number of inflammatory acne lesions: marked decrease
Moderate to severe acne; any of 40, 80, or 120 mg, at both 21 and 42 days
  number of facial nodules: marked decrease
Moderate to severe acne; daily treatment at each dosage level tested, 40, 80, or 120 mg
  response of non-inflammatory acne lesions: responded favorably
Moderate to severe acne; examination at 21 days after initiation of treatment, daily administration
  resolution of existing nodules: Complete resolution of existing nodules in several subjects
Acne [4]
  efficacy in the treatment of acne: efficacious
  gastrointestinal side effect rate: about 10%
[5]; 25 mg per day for 6 weeks, migraine headache on day 21, deemed not related
  adverse effects reported: only one adverse effect was reported
[5]; 25 mg per day or 80 mg every other day for 6 weeks
  typical antibiotic side effects (abdominal cramping, nausea, vomiting, diarrhea or vaginitis): no typical antibiotic side effects reported
[5]; 80 mg every other day for 6 weeks
  adverse effects reported: no adverse effects were reported
